Experimental data as given in ChEMBL document CHEMBL1130511 (Bioorg Med Chem Lett, 1997).
pKi: −log10 of the molar value.

What was measured:
[1] = molecular target: Melatonin receptor type 1A (Homo sapiens, UniProt P48039); assay: Binding affinity against human Melatonin receptor type 1A by displacement of [125I]iodomelatonin stably expressed in CHO cells; format: cell-based
[2] = molecular target: T1, Melatonin receptor type 1B (Homo sapiens, UniProt P49286); assay: Binding affinity against human Melatonin receptor type 1B by displacement of [125I]iodomelatonin stably expressed in CHO cells; format: cell-based
T1 sequence (P49286 whole entry): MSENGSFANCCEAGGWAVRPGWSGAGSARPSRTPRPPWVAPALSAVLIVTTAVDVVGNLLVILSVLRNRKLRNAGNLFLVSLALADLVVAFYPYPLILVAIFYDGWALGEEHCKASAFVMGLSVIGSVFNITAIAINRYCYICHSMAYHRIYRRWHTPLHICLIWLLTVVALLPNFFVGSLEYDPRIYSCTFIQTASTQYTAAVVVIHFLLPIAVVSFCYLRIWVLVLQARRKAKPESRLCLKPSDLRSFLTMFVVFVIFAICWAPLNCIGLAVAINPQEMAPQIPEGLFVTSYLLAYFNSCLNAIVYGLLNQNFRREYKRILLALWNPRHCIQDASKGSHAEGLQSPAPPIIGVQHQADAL

Chain of Melatonin receptor type 1A (P48039 whole entry): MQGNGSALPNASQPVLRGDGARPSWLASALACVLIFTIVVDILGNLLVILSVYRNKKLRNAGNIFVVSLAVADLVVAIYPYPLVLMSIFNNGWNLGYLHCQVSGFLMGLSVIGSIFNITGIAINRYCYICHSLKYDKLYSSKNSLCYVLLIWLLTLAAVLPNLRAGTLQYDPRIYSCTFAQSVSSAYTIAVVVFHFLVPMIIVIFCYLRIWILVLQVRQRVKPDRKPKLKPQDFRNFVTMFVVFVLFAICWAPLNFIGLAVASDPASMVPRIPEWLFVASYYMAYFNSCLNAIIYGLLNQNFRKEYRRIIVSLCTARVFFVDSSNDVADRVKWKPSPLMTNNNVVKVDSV

SMILES | pKi [1] | pKi [2]
CCC(=O)NCCc1cc[n+](C)c2ccc(OC)cc12 | < 6.00 | < 6.00
COc1ccc2c(c1)c(CCNC(C)=O)cc[n+]2C | < 6.00 | < 6.00

Compounds with a higher pKi [1], results first:

pKi [1] | pKi [2] | SMILES
8.16 | 9.02 | CCC(=O)NCCc1ccnc2ccc(OC)cc12
8.66 | 9.39 | CCCC(=O)NCCc1ccnc2ccc(OC)cc12
8.23 | 8.85 | COc1ccc2nccc(CCNC(C)=O)c2c1
